The source of these data is publication PMC7066135, “The lipoprotein Pal stabilises the bacterial outer membrane during constriction by a mobilisation-and-capture mechanism” (Nature Communications, 2020).

Test [1] has as its system Pal-mCherry in E. coli cells. Put plainly: Fluorescence recovery after photobleaching (FRAP) of Pal-mCherry. As to conditions: non-dividing cells, average from 30 cells. The format is cell-based. As to the method: Overnight supplemented M9-glucose (2 mM MgSO4, 0.1 mM CaCl2, 0.4% (w/v) D-glucose) cultures were diluted in fresh medium with appropriate antibiotics and IPTG for strains expressing TolA from plasmids. Cultures were grown at 37 °C to OD600 0.3. Cells were centrifuged at 7000 × g for 1 min, resuspended in 1 ml of fresh media and treated with CCCP (0.1 mM, RT for 5 min, Sigma #C2759) for PMF decoupling, sodium azide (50 µg ml^−1, RT for 30 min, Sigma #S2002) for ATPase inhibition or chloramphenicol (30 µg ml^−1, 37 °C for 30 min, Sigma #C0378) for translation inhibition. […]
Microscopy was performed on a Zeiss LSM 880/Axio Examiner Z1 motorised upright laser scanning microscope equipped with Argon multiline 458/488/514 nm (25 mW), and HeNe 561 nm (1 mW) and ×63 oil-immersion objective (Zeiss, NA 1.4) set to 37 °C. […] Two images were acquired before bleaching and ten images, with a time interval of 1 min, recorded after bleaching using an automatic time-course function. […] For all fluorescent images, corresponding differential interference contrast (DIC) images were recorded using transmitted light. All images were recorded using Zeiss Zen 2011 software.
All images were analysed using ImageJ software. Fluorescence distribution along x-axis of cells was determined by the plot profile function with a line width of 4 points for TIRFM images and 40 or 80 for FRAP images. […]

Test [2] has as its target T1, C-terminal domain of wild-type TolA (Pseudomonas aeruginosa, UniProt P50600).
T1 construct: The C-terminal domain of Pseudomonas aeruginosa TolA (TolA^224–347) and its derivatives; His-tagged Im9 (fusion partner, factor Xa site) (N, cleaved yes); made in house; host or cells: E. coli BL21 (DE3)
Put plainly: Stopped-flow fluorescence anisotropy, wild-type TolA. The format is binding, P. aeruginosa. Here is the method: (§1) Experiments were conducted on an Applied Photophysics SX20 instrument set up for 1:1 single mixing and thermostated using a circulating water bath at 25 °C. All stopped-flow experiments were carried out in 50 mM Tris pH 7.0, 100 mM NaCl and under pseudo-first-order conditions. […] Monochromator entrance and exit slits were set to 2 mm. A total of 4000–10,000 data points were collected for each reaction. At least four anisotropy traces were collected for each reaction and averaged for each time-dependence fit. All anisotropy traces were fit to a single exponential rate equation. Each reaction concentration was collected in triplicate and validated using recombinant protein from different protein purifications. SigmaPlot was used for linear regression analysis to fit the dependence of kobs on the varied concentration of TolA. Titrations were performed at increasing concentration of protein relative to a constant concentration of peptide at 1 μM. Experiments were typically performed with 4–10-s data collection periods.
(§2) of mutations in vitro and in vivo. All in vitro measurements used the P. aeruginosa complex while all in vivo assays
(§3) binding a 100-fold excess of the C-terminal domain of wild-type TolA (red) and TolA with its C-terminal α-helix removed
(§4) tion yielding an observed rate (kobs). […]
In general terms: In fluorescence polarisation assays a small probe gives low polarisation when free and higher when bound to something large.

For test [3], the target named is T2, TolA with its C-terminal α-helix removed (Pseudomonas aeruginosa, UniProt P50600).
T2 construct: Open symbols, TolA224-344 lacking its short; His-tagged Im9 (fusion partner, factor Xa site) (N); made in house; host or cells: E. coli BL21 (DE3)
Put plainly: Stopped-flow fluorescence anisotropy, helix-truncated TolA. The format is binding, P. aeruginosa. As to the method: as §1, §2, §3, §4

The target of test [4] is T3, TolA224-344 lacking its short C-terminal α-helix (Pseudomonas aeruginosa, UniProt P50600).
T3 construct: Open symbols, TolA224-344 lacking its short; His-tagged Im9 (fusion partner, factor Xa site) (N); made in house; host or cells: E. coli BL21 (DE3)
Briefly: Fluorescence anisotropy titration, FITC-labelled TolB peptide, helix-truncated TolA. The format is binding, P. aeruginosa. As to conditions: versus wild-type TolA224-347. As to the method: Fluorescence anisotropy experiments were used to observe the change in overall anisotropy of P. aeruginosa TolB^22–34 fluorescein isothiocyanate (FITC) in complex with the C-terminal domain of TolA. A titration curve was recorded using 40 μl fractions in a 96-well, black absorbent, 100 μl plate, n = 3.
Experiments were carried out using either a CLARIOstar plate reader or a Fluoromax- 4 spectrofluorimeter (Horiba JobinYvon). Titrations were carried out between 0 and 1.2 mM TolA. […] FITC excitation wavelength used was 495 nm with an emission wavelength at 519 nm. All experiments were conducted in 50 mM Tris 100 mM NaCl pH 7.0 and used light-blocking tubes to minimize quenching.
(§5) Data were fitted using the manufac-turer ’s software assuming a 1:1 binding model, validated by the resulting structure for the complex. From three independent measurements, average values for ΔH […] (±0.24 standard deviation (SD)) kcal.mol-1, ΔS +11.8 (±2.14 SD) cal.K-1 […]
(§6) form of an isolated peptide. b, Binding of TolB22-34 to the C-terminal domain of 15N-labelled TolA224-347 from P. aeruginosa followed by changes in 1H, 15N-HSQC spectra, >80% of all TolA peaks were perturbed by TolB22-33 binding. Every peak was […]
(§7) and free (32%) TolA. […]
(§8) five-fold weaker binding than the E. coli complex. c, Fluorescence anisotropy binding curves for P. aeruginosa TolB22-33 binding the C-terminal domain of TolA. […]

A further test has as its target T4, TolA224-347 (Pseudomonas aeruginosa, UniProt P50600).
T4 construct: The C-terminal domain of Pseudomonas aeruginosa TolA (TolA^224–347) and its derivatives; His-tagged Im9 (fusion partner, factor Xa site) (N, cleaved yes); made in house; host or cells: E. coli BL21 (DE3)
Briefly: NMR titration (1H,15N-HSQC), TolB peptide binding 15N-labelled TolA. The settings on record: 1H,15N-HSQC spectra; slow chemical exchange. On the set-up: species or system P. aeruginosa. As to the method:
NMR experiments were carried out using spectrometers operating at ^1H frequencies ranging from 500 to 950 MHz. The spectrometers were equipped with Oxford Instruments magnets and home-built triple-resonance pulsed-field gradient probes (600, 750 and 950 MHz) or with Bruker Avance consoles and TCI CryoProbes (500 and 600 MHz). NMR data were acquired using either GE/Omega software using pulse sequences written in-house, or Topspin software and pulse sequences in the Topspin libraries from Bruker Biospin. All data processing was conducted using NMRPipe[49]. Processed spectra were visualized and assigned using the CCPN software suite. All NMR data were collected at 20 °C.
as §5, §6, §7, §8

Test [5] deals with E. coli TolB22-33 peptide. Put plainly: ITC. (Isothermal titration calorimetry measures the heat released or taken up as one component is titrated into another.)
Test [6] addresses P. aeruginosa TolB^22–34 fluorescein isothiocyanate (FITC) (P. aeruginosa) (UniProt P50601). Briefly: FP.
For a further test, the target named is TolA (Escherichia coli) (UniProt P19934). The settings on record: cited from earlier work.
Another test concerns the target Pal (Escherichia coli) (UniProt P0A912). The settings on record: cited from earlier work.
The test system of another test is TolA-GFP at the divisome. Put plainly: 3D-SIM of TolA-GFP recruitment to the divisome. The format is cell-based, E. coli. The settings on record: TolB I25A, I27A background versus wild-type TolB, expressed from plasmid; n = 30; Mann-Whitney U and t test. An excerpt: Live bacteria were mounted between an agarose pad and a coverslip. Imaging was processed at room temperature with a ×60, NA 1.42 oil objective on a Deltavision OMX V3 Blaze (GE) equipped with a 488 laser. Image stacks of several μm thickness were taken with 0.125 μm z-steps and 15 images (three angles and five phases per angle) per z-section and a 3D-structured illumination with stripe separation of 213 nm. Laser power was set at 10% to scan the sample over 4 µm thickness (32 slices) without too much photobleaching. Image stacks were reconstructed using Deltavision softWoRx 6.1.1 software with a Wiener filter of 0.002 using wavelength-specific experimentally determined OTF functions (see ref. [37]). […] Distribution of fluorescence intensity along the x-axis of bacteria was determined using a custom script implemented in MATLAB (version 2012a, MathWorks) (see ref. [40]). […] Intensity along the selected bacteria was measured 11 times between the bacterial end-points, each at a uniformly spaced offset from the bacterial long axis. The mean profile was calculated and normalized to the range 0–100 for comparison between bacteria. Diameter measurements correspond to the height of ring, calculated automatically through ImageJ software from each reconstructed and filtered image. A total of 30 cells were analysed per condition, in triplicate. […]

For test [7], the target named is T5, C-terminal domain of Pseudomonas aeruginosa TolA (TolA^224–347) (Pseudomonas aeruginosa, UniProt P50600 224-347).
T5 chain: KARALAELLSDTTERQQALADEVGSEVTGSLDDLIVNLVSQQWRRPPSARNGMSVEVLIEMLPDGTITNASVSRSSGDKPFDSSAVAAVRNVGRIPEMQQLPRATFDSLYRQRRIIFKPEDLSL
Put plainly: FP.

The target in test [8] is T5, C-terminal domain of Pseudomonas …. Briefly: NMR.

Ends that are not written are not given here. Peptide text beside a SMILES is read from it. * marks the point of attachment. FITC = O=C1OC2(c3ccc(O)cc3Oc3cc(O)ccc32)c2ccc(NC(=S)*)cc21

TolB, sequence (P0A855 22-430): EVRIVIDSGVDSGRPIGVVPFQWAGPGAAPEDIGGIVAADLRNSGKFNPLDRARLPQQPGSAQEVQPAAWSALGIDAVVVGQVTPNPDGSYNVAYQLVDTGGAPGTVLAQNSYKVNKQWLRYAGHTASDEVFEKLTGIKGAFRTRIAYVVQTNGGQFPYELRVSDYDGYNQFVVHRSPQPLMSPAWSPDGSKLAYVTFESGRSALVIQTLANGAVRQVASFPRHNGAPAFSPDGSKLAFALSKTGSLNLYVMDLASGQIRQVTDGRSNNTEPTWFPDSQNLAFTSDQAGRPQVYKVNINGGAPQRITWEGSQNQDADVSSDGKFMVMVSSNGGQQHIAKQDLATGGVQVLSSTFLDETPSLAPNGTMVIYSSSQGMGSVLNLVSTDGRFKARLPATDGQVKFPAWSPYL
Pal (Escherichia coli), sequence (P0A912 22-173): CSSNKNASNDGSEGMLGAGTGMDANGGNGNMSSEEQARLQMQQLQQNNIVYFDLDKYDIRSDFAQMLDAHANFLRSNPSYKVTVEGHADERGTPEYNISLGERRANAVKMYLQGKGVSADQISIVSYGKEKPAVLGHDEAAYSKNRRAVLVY
TolA (Escherichia coli), sequence (P19934 whole entry): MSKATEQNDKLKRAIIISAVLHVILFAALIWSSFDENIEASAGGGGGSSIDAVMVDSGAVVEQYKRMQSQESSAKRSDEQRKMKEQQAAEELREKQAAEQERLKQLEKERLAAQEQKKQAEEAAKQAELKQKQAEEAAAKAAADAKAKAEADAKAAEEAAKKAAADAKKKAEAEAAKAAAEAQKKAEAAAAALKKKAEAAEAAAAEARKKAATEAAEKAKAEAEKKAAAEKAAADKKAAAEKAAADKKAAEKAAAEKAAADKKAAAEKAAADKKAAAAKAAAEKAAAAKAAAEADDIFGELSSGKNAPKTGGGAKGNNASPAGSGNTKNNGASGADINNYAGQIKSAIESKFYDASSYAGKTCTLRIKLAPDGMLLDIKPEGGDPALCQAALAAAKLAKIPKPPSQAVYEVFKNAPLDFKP

`N#CC(C#N)=NNc1cccc(Cl)c1` [CCCP]: the “effect on FRAP recovery” value in [1] (CCCP 0.1 mM) was “measurable effect”.

Broadly, the koff is a measure of how fast the partners let go of each other. High values mean fast dissociation, low ones slow dissociation. For `CC[C@H](C)[C@H](NC(=O)[C@@H](NC(=O)[C@H](CC(C)C)NC(=O)[C@@H]1CCCN1C(=O)[C@H](CC(=O)O)NC(=O)[C@H](C)N)C(C)C)C(=O)N[C@@H](CO)C(=O)N[C@@H](CO)C(=O)NCC(=O)N[C@@H](CC(N)=O)C(=O)N[C@@H](CC(=O)O)C(=O)N[C@@H](CCCNC(=N)N)C(=O)N[C@@H](CCCCNC(=S)Nc1ccc2c(c1)C(=O)OC21c2ccc(O)cc2Oc2cc(O)ccc21)C(N)=O` [P. aeruginosa TolB22-33] (H-ADPLVISSGNDRK(FITC)-NH2; N-terminus and C-terminus assumed), the values for the off-rate constant (koff) in test [2] and in [3] were 0.9 s⁻¹ and 1.4 s⁻¹, respectively. Also, the “kon relative to wild-type complex” value in [3] (helix truncation versus wild-type TolA) was “three-fold faster”. In addition, in [4], the “improvement of TolB binding on deletion of the TolA helix” value is “three-fold”.

Take `[N-]=[N+]=[N-].[Na+]` [sodium azide]: the “effect on FRAP recovery” value in test [1] (sodium azide 50 µg/µl) is “measurable effect”.

For ADPLVISSGNDRA-NH2 [TolB22-34], on TolA224-347, the “TolA peaks perturbed by TolB peptide binding” value is on record as greater than 80%.

For orientation: Kd means the concentration at which binding is half-saturated. In the case of E. coli TolA C-terminal domain, the dissociation constant Kd in test [5] was 42 µM.

Consider “TolA224-344 (P. aeruginosa, lacking C-terminal α-helix)”, for which the Kd in test [6] turned out to be 86 µM.

As to TolB (from UniProt P0A855), the dissociation constant Kd was 40 µM with TolA (Escherichia coli) and 0.03 µM with Pal (Escherichia coli).

With TolB I25A, I27A, in the test on TolA-GFP at the divisome, the “divisome recruitment of TolA-GFP (intensity distribution, ring diameter)” value was “no significant difference”.

The molecule ADPLVISSGNDRAK(FITC) [P. aeruginosa TolB^22–34 fluorescein isothiocyanate (FITC)] returned an equilibrium dissociation constant (Kd) in test [7] of 250 µM.

In test [8], ADPLVISSGNDRA-NH2 [P. aeruginosa TolB^22–34 peptide (the N-terminus of secreted TolB; the TolA box)] had a Kd of 220 µM.
